Laboratory results from patent US12534469B2 (CHILDREN'S HOSPITAL MEDICAL CENTER, priority 2020, dated 2026).

Key:
MOLM14 (D835Y) cells = experiment: Combination drug screening, 10 x 10 matrix, cell viability (Cell Titer Glo); type: cell-based; conditions: for concentration required to reach a similar level of potentiation as Compound 106: 7.8 nM Venetoclax, 10×10 combination, compared with Compound 106; for Interaction with Venetoclax: combination with Venetoclax, 10 x 10 dataset; for Sum Excess HSA / Interaction with Compound 96: combination with Compound 96, 10 x 10 dataset; for Sum Excess HSA: 48 hours
Method: Briefly, 10 nL of compounds were acoustically dispensed into 1536-well white polystyrene tissue culture-treated plates with an Echo 550 acoustic liquid handler (Labcyte). MOLM14 (D835Y) cells were then added to compound-containing plates at a density of 500-cells/well in 5 μL of medium. A 10-point custom concentration range was used for all listed drugs. Plates were incubated for 48 hours at standard incubator conditions covered by a stainless steel gasketed lid to prevent evaporation. 48 h post compound addition, 3 μL of Cell Titer Glo (Promega) were added to each well and plates were incubated at room temperature for 15 minutes with the stainless-steel lid in place. Luminescence readings were taken using a Viewlux imager (PerkinElmer) with a 2 second exposure time per plate.
However, different methodologies may yield different numerical scores, and different definitions of what constitutes a deviation from mere additivity vs true drug synergy.
However, the utility in certain drug combinations vs others should not be distinguished based on cutoffs between HSA scores, because the score itself is only a relative indicator that is completely dependent on experimental design and is not an absolute number. Furthermore, the concept of what constitutes clinically meaningful drug synergy is something that is still being debated, not only between pharmacologists and physicians, but amongst pharmacologists themselves.

FLT3 = biological target: T1, FLT3 (Homo sapiens, UniProt P36888); experiment: RBC HotSpot Kinase Assay, FLT3; type: biochemical
T1 construct: purchased Reaction Biology (RBC HotSpot Kinase Assay)
T1 sequence (P36888 564-958 limits assumed): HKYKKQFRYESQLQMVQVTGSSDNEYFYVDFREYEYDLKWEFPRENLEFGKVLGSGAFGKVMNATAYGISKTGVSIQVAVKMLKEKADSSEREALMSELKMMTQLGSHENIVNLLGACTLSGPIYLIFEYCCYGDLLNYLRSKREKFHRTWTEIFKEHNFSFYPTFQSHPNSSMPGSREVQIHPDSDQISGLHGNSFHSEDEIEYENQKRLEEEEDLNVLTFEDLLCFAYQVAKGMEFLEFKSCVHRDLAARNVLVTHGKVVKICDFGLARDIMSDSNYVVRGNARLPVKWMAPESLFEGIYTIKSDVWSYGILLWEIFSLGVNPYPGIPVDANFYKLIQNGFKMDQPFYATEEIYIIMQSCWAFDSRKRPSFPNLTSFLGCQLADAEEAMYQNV
Outline: (§1)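 Radiometric filter-binding (HotSpot) activity assay on isolated recombinant kinase, possibly truncated or catalytic domain only, in 20 mM Hepes pH 7.5, 10 mM MgCl2, 1 mM EGTA, 2 mM DTT, 1% DMSO. Compound preincubated 20 min with kinase and substrate, then ^33P-ATP added. Reaction 2 h at room temperature, read by P81 filter binding.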

IRAK1 = biological target: T2, IRAK1 (Homo sapiens, UniProt P51617); experiment: RBC HotSpot Kinase Assay, IRAK1; type: biochemical
T2 construct: purchased Reaction Biology (RBC HotSpot Kinase Assay)
Outline: as §1

IRAK4 = biological target: T3, IRAK4 (Homo sapiens, UniProt Q9NWZ3); experiment: RBC HotSpot Kinase Assay, IRAK4; type: biochemical; design: purchased Reaction Biology (RBC HotSpot Kinase Assay)
T3 sequence (Q9NWZ3 1-460): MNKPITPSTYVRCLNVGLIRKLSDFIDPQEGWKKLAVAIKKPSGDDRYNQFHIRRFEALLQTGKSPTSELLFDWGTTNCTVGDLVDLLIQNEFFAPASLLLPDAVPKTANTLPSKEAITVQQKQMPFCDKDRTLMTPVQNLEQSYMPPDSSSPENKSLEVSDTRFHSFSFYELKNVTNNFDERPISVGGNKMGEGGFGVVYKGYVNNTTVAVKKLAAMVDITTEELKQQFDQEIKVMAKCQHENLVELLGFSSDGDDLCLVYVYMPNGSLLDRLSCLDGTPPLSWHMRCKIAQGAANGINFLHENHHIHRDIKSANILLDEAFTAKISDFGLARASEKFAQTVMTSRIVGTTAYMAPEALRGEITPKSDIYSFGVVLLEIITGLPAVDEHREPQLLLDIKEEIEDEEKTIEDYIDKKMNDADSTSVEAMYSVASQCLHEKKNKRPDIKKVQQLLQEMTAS
Outline: as §1

T2 sequence (P51617 whole entry): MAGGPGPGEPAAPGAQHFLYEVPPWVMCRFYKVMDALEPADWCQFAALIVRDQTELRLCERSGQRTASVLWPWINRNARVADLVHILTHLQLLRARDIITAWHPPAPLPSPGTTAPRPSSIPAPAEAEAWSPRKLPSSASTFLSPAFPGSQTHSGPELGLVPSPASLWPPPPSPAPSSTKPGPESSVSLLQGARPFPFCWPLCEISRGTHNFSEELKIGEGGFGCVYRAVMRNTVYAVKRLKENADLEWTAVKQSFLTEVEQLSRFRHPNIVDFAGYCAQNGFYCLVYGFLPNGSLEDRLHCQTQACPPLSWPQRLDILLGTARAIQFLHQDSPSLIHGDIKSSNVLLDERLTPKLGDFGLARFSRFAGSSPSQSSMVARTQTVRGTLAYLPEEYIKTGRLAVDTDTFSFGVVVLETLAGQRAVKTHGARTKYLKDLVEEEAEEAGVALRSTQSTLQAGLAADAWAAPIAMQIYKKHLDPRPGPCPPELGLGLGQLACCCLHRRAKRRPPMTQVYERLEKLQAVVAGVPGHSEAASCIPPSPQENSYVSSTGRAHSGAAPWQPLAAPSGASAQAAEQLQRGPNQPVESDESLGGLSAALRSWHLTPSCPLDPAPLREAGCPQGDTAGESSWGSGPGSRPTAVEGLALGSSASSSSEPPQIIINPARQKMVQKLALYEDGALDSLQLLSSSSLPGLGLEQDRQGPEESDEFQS

Cc1cnc(-c2ccc(-c3ccc(NC(=O)Nc4c(F)cc(F)cc4F)cc3F)c3c2C(=O)NC3)[nH]1 [CG-806, reference compound]
concentration required to reach a similar level of potentiation as Compound 106 (MOLM14 (D835Y) cells): substantially higher concentrations | Interaction with Venetoclax (MOLM14 (D835Y) cells): synergize

CC1(C)CC[C@]2(NC(=O)C(C)(F)F)CC[C@]3(C)[C@H](C(=O)C=C4[C@@]5(C)C=C(C#N)C(=O)C(C)(C)[C@@H]5CC[C@]43C)[C@@H]2C1 [Omaveloxolone]
Sum Excess HSA (MOLM14 (D835Y) cells): 196

CN1C(=O)[C@@H](NC(=O)c2n[nH]c(Cc3ccccc3)n2)COc2ccccc21 [GSK-2982772]
Interaction with Compound 96 (MOLM14 (D835Y) cells): Synergestic | Sum Excess HSA (MOLM14 (D835Y) cells): −577

CCN(c1cc(-c2ccc(CN3CCOCC3)cc2)cc(C(=O)NCc2c(C)cc(C)[nH]c2=O)c1C)C1CCOCC1 [Tazemetostat, tazemetostat, reference compound]
Sum Excess HSA (MOLM14 (D835Y) cells): 74.36

COc1cccc2nc(-c3cccs3)nc(NN3C(=O)C=C(C)C3=O)c12 [SPC-839]
Sum Excess HSA (MOLM14 (D835Y) cells): −326.8

CC1(C)CCC(C)(C)c2cc(NC(=O)c3ccc(C(=O)O)cc3)ccc21 [Tamibarotene]
Sum Excess HSA (MOLM14 (D835Y) cells): 850.4

CC1(C)CCC(CN2CCN(c3ccc(C(=O)NS(=O)(=O)c4ccc(NCC5CCOCC5)c([N+](=O)[O-])c4)c(Oc4cnc5[nH]ccc5c4)c3)CC2)=C(c2ccc(Cl)cc2)C1 [Venetoclax (ABT-199), venetoclax, reference compound]
Sum Excess HSA (MOLM14 (D835Y) cells): −549.6211

C[C@]12C=CC(=O)C=C1CC[C@@H]1[C@@H]2[C@@H](O)C[C@@]2(C)[C@H]1CC[C@]2(O)C(=O)CO [Prednisolone, prednisolone, reference compound]
Sum Excess HSA (MOLM14 (D835Y) cells): −46.1

Cc1c(-c2c(-c3ccc(F)o3)sc3ncnc(O[C@H](Cc4ccccc4OCc4ccnn4CC(F)(F)F)C(=O)O)c23)ccc(OCCN2CCN(C)CC2)c1Cl [Compound S63845]
Sum Excess HSA (MOLM14 (D835Y) cells): 297.3

CC(C)(C)c1cc(NC(=O)Nc2ccc(-c3cn4c(n3)sc3cc(OCCN5CCOCC5)ccc34)cc2)no1 [Quizartinib, reference compound]
concentration required to reach a similar level of potentiation as Compound 106 (MOLM14 (D835Y) cells): substantially higher concentrations | Interaction with Venetoclax (MOLM14 (D835Y) cells): synergize

CCOC(=O)c1ccc(C#Cc2ccc3c(c2)C(C)(C)CCS3)nc1 [Tazarotene]
Sum Excess HSA (MOLM14 (D835Y) cells): −189

C[C@@H]1C[C@H]2[C@@H]3CCC4=CC(=O)C=C[C@]4(C)[C@@]3(F)[C@@H](O)C[C@]2(C)[C@@]1(O)C(=O)CO [Dexamethasone, dexamethasone, reference compound]
Sum Excess HSA (MOLM14 (D835Y) cells): −69.67

Gilteritinib hemifumerate [reference compound]
Interaction with Venetoclax (MOLM14 (D835Y) cells): synergize

CN1C(=O)N[C@H](Cc2c[nH]c3c(Cl)cccc23)C1=O [Necrostatin 2]
Sum Excess HSA (MOLM14 (D835Y) cells): 288.7

CC(=O)c1c(C)c2cnc(Nc3ccc(N4CCNCC4)cn3)nc2n(C2CCCC2)c1=O [Palbociclib, reference compound]
Sum Excess HSA (MOLM14 (D835Y) cells): 999.2

C[C@H]1C[C@@H]2[C@H]([C@@H](O)C[C@@]3(C)[C@H]2CC[C@]3(O)C(=O)CO)[C@@]2(C)C=CC(=O)C=C12 [Methylprednisolone, methylprednisolone, reference compound]
Sum Excess HSA (MOLM14 (D835Y) cells): 891

CC1(C)CCC(c2ccc(Cl)cc2)=C(CN2CCN(c3ccc(C(=O)NS(=O)(=O)c4ccc(N[C@H](CCN5CCOCC5)CSc5ccccc5)c(S(=O)(=O)C(F)(F)F)c4)cc3)CC2)C1 [Navitoclax (ABT-263), Navitoclax, reference compound]
Sum Excess HSA (MOLM14 (D835Y) cells): −227.3

Gilteritinib hemifumarate [reference compound]
concentration required to reach a similar level of potentiation as Compound 106 (MOLM14 (D835Y) cells): substantially higher concentrations

COc1c(OCCCN2CCOCC2)ccc2c1N=C(NC(=O)c1cnc(N)nc1)N1CCN=C21 [Copanlisib]
Sum Excess HSA (MOLM14 (D835Y) cells): −542.8

COc1cc(C(=O)O)ccc1NC(=O)[C@@H]1N[C@@H](CC(C)(C)C)[C@](C#N)(c2ccc(Cl)cc2F)[C@H]1c1cccc(Cl)c1F [Idasanutlin]
Sum Excess HSA (MOLM14 (D835Y) cells): 192.3

CC(C)[C@@H](CS(=O)(=O)C(C)C)N1C(=O)[C@@](C)(CC(=O)O)C[C@H](c2cccc(Cl)c2)[C@H]1c1ccc(Cl)cc1 [AMG-232]
Sum Excess HSA (MOLM14 (D835Y) cells): −222.9

Cc1cc(-c2nc(C(=O)Nc3cc4oc(N5CCOCC5)nc4nc3N3CC[C@@H](O)C3)co2)ccn1 [CA-4948, reference compound]
concentration required to reach a similar level of potentiation as Compound 106 (MOLM14 (D835Y) cells): substantially higher concentrations | Interaction with Venetoclax (MOLM14 (D835Y) cells): synergize

O=C1CC[C@H](N2Cc3c(OCc4ccc(CN5CCOCC5)cc4)cccc3C2=O)C(=O)N1 [Iberdomide]
Interaction with Compound 96 (MOLM14 (D835Y) cells): Antagonistic

CC(C)n1cc(-c2ccc3ncc(-c4cccc(NC5CC6(CNC6)C5)n4)n3n2)cn1 [Compound 32, N-(6-(6-(1-isopropyl-1H-pyrazol-4-yl)imidazo[1,2-b]pyridazin-3-yl)pyridin-2-yl)-2-azaspiro[3.3]heptan-6-amine]
IC50 (FLT3): 9 nM | IC50 (IRAK1): 3410 nM | IC50 (IRAK4): 630 nM

F[C@H]1CNC[C@@H]1Nc1cccc(-c2cnc3ccc(N4CCCCC4)nn23)n1 [Compound 94, N-((3S,4S)-4-fluoropyrrolidin-3-yl)-6-(6-(piperidin-1-yl)imidazo[1,2-b]pyridazin-3-yl)pyridin-2-amine]
IC50 (FLT3): 6 nM | IC50 (IRAK1): 1050 nM | IC50 (IRAK4): 33 nM

CC(C)(O)Cn1cc(-c2ccc3ncc(-c4cccc(NC5CNCC5(F)F)n4)n3n2)cn1 (stereo not drawn) [Compound 24, 1-(4-(3-(6-((4,4-difluoropyrrolidin-3-yl)amino)pyridin-2-yl)imidazo[1,2-b]pyridazin-6-yl)-1H-pyrazol-1-yl)-2-methylpropan-2-ol]
IC50 (FLT3): 17 nM | IC50 (IRAK1): 1640 nM | IC50 (IRAK4): 261 nM

Cn1cc(-c2ccc3ncc(-c4cccc(NC5CNCC5(F)F)n4)n3n2)cn1 (stereo not drawn) [Compound 21, N-(4,4-difluoropyrrolidin-3-yl)-6-(6-(1-methyl-1H-pyrazol-4-yl)imidazo[1,2-b]pyridazin-3-yl)pyridin-2-amine]
IC50 (FLT3): 6 nM | IC50 (IRAK1): 497 nM | IC50 (IRAK4): 38 nM

COc1cc2ncc(-c3cccc(N[C@H]4CNC[C@@H]4F)n3)n2nc1-c1cn[nH]c1 [Compound 119]
IC50 (FLT3): < 0.5 nM | IC50 (IRAK1): 75 nM | IC50 (IRAK4): < 0.5 nM

F[C@H]1CNC[C@@H]1Nc1cccc(-c2cnc3ccc(NC4CCC4)nn23)n1 [Compound 91, N-cyclobutyl-3-(6-(((3S,4S)-4-fluoropyrrolidin-3-yl)amino)pyridin-2-yl)imidazo[1,2-b]pyridazin-6-amine]
IC50 (FLT3): 6 nM | IC50 (IRAK1): 1640 nM | IC50 (IRAK4): 101 nM

FC(F)c1ccc2ncc(-c3cccc(N[C@H]4CNC[C@@H]4F)n3)n2n1 [Compound 78, 6-(6-(difluoromethyl)imidazo[1,2-b]pyridazin-3-yl)-N-((3S,4S)-4-fluoropyrrolidin-3-yl)pyridin-2-amine]
IC50 (FLT3): 6 nM | IC50 (IRAK1): 1860 nM | IC50 (IRAK4): 29 nM

F[C@@H]1CNCC[C@H]1Nc1cccc(-c2cnc3ccc(C4CC4)nn23)n1 [Compound 73, 6-(6-cyclopropylimidazo[1,2-b]pyridazin-3-yl)-N-((3R,4R)-3-fluoropiperidin-4-yl)pyridin-2-amine]
IC50 (FLT3): 10 nM | IC50 (IRAK1): 1830 nM | IC50 (IRAK4): 292 nM

c1ccc(-n2cc(-c3ccc4ncc(-c5cccc(NC6CCC7(CNC7)C6)n5)n4n3)cn2)cc1 (stereo not drawn) [Compound 47, N-(6-(6-(1-phenyl-1H-pyrazol-4-yl)imidazo[1,2-b]pyridazin-3-yl)pyridin-2-yl)-2-azaspiro[3.4]octan-6-amine]
IC50 (FLT3): 19 nM | IC50 (IRAK1): > 10000 nM | IC50 (IRAK4): 3200 nM
